Source: patent US20160095867A1, “BET INHIBITION THERAPY FOR HEART DISEASE” (DANA-FARBER CANCER INSTITUTE, INC., priority 2013, published 2016)

System: mice subject to TAC
Assay: Transverse aortic constriction (TAC) model, JQ1 begun 1.5 days after TAC
Type: in vivo, mouse
Protocol: JQ1 was synthesized and purified in the laboratory of Dr. James Bradner (DFCI) as previously published (Filippakopoulos et al., 2010). For in vivo experiments, a stock solution (50 mg/mL in DMSO) was diluted to a working concentration of 5 mg/mL in aqueous carrier (10% hydroxypropyl β-cyclodextrin; Sigma C0926) using vigorous vortexing. Mice were injected at a dose of 50 mg/kg given intraperitoneally once daily. Vehicle controls were given an equal amount of DMSO in carrier solution. All solutions were prepared and administered using sterile technique. For in vitro experiments, JQ1 and other BET inhibitors were dissolved in DMSO and administered to cells at indicated concentrations using an equal volume of DMSO as control. The BET inhibitors used were as follows: iBET, iBET-151, RVX-208, and PF-1.
All mice were C57Bl/6J littermate males aged 10-12 weeks. For TAC, mice were anesthetized with ketamine/xylazine, mechanically ventilated (Harvard apparatus), and subject to thoracotomy. The aortic arch was constricted between the left and right carotid arteries using a 7.0 silk suture and a 27-gauge needle as previously described (Hu et al., 2003). In our hands, this protocol a consistent peak pressure gradient of approximately 50 mmHg across the constricted portion of the aorta. For PE infusion, mice were anesthetized using continuous 1% inhalational isofluorane. Mini-osmotic pumps (Alzet 2004, Durect Corp.) were filled with phenylephrine hydrochloride (PE, Sigma) or vehicle (normal saline) and implanted subcutaneously on the dorsal aspect of the mouse. PE was infused at a dose of 75 mg/kg/day for 17 days. Injections of JQ1 or vehicle were begun 1.5 days postoperatively.
For transthoracic echocardiography, mice were anesthetized with 1% inhalational isofluorane and imaged using the Vevo 770 High Resolution Imaging System (Visual Sonics, Inc.) and the RMV-707B 30 MHz probe. Measurements were obtained from M-mode sampling and integrated EKV images taken in the LV short axis at the mid-papillary level (Haldar et al., 2010). Measurements of pressure gradients across the constricted portion of the aorta were obtained by high frequency Doppler as previously described (Liu et al., 2012). Conscious tail-vein systolic blood pressure was measured using the BP2000 Blood Pressure Analysis System (Visitech Systems, Inc.) as recommended by the manufacturer. To allow mice to adapt to the apparatus, we performed daily blood pressure measurements for one week prior to beginning experiments. Treadmill endurance exercise testing was performed on a motorized mouse treadmill (Columbus Instruments) as previously described (Haldar et al., 2012).
Short-axis heart sections from the mid-ventricle were fixed in PBS/4% paraformaldehyde and embedded in paraffin. Cardiomyocyte cross sectional area was determined by staining with rhodamine-conjugated wheat-germ agglutinin (Vector Laboratories RL-1022) as quantified as previously described (Froese et al., 2011). Fibrosis was visualized using Masson's Trichrome staining kit (Biocare medical) with quantification of fibrotic area as previously described (Song et al., 2010). Terminal deoxynucleotidyl transferase dUTP nick-end label (TUNEL) staining and quantification was performed as previously described (Song et al., 2010) using the ApopTag Plus kit (Millipore) according to manufacturer's instructions. Myocardial capillary staining was performed in frozen LV sections using anti-PECAM-1 antibodies (EMD Millipore cat#CBL-1337) as previously described (Haldar et al., 2010).

[1] = JQ1 50 mg/kg/day IP from 1.5 days after TAC, out to 4 weeks

Cc1sc2c(c1C)C(c1ccc(Cl)cc1)=N[C@@H](CC(=O)OC(C)(C)C)c1nnc(C)n1-2 [JQ1]
tolerability during TAC (activity, mortality, weight loss vs vehicle) (JQ1 50 mg/kg/day): well tolerated | TAC-mediated LV cavity dilation (echocardiography) [1]: protected against | TAC-mediated LV systolic dysfunction (echocardiography) [1]: protected against | TAC-mediated LV wall thickening (echocardiography) [1]: protected against | pathologic cardiomegaly (HW/BW) (JQ1 50 mg/kg/day, 4 weeks TAC): inhibited | pulmonary congestion (LW/BW) (JQ1 50 mg/kg/day, 4 weeks TAC): inhibited | myocardial expression of canonical hypertrophic marker genes (JQ1 50 mg/kg/day, after TAC): inhibited | effect on LV structure or function in sham treated mice (JQ1 50 mg/kg/day, sham surgery): no adverse effect | TAC-mediated induction of c-Myc expression in vivo (TAC mouse hearts, qRT-PCR): no effect | evolution of pathological gene expression program in the heart (microarray GEP) (TAC, 3, 11 and 28 days): suppressed | apoptotic cell death (TUNEL) (heart tissue, 4 weeks of TAC): significantly attenuated | capillary rarefaction (PECAM-1) (heart tissue, 4 weeks of TAC): significantly attenuated | development of cardiomyocyte hypertrophy (wheat germ agglutinin, cardiomyocyte area) (heart tissue, 4 weeks of TAC): significantly attenuated | myocardial fibrosis (Masson's Trichrome) (heart tissue, 4 weeks of TAC): significantly attenuated
